Laboratory results taken from PMC9505425, “Targeting of the Mitochondrial TET1 Protein by Pyrrolo[3,2-b]pyrrole Chelators” (International Journal of Molecular Sciences, 2022).
pIC50: −log10 of the molar value. Where “and” joins values, the source holds several entries; their conditions need not be identical. Equal values may be shown once.

Assays:
[1] = test system: BT-20 cells; assay: MTT cytotoxicity assay, BT-20; assay type: cell-based, human; conditions: for Cell viability % / pIC50: 48 h; for pIC50: BT-20, MTT
Protocol: (§1) The effects of the tested compounds 1–6 on HF-P4, U-118 MG, H1299, BT-20, and Caov-3 cell lines were evaluated by the MTT assay during 48 h treatment (Table 2 and Tables S2–S31). In all tested compounds, we recognized a difference in cytotoxicity between healthy cells (HF-P4) and cancer cell lines (BT-20, Caov-3, and H-1299). […] In the case of ovarian cancer, the authors discovered oncogenic and poor prognosis roles of TET1 in epithelial ovarian carcinoma (EOC). TET1 is believed to demethylate the epigenome and activate numerous oncogenic pathways in EOC. The aforementioned study presents a new mechanism where TET1 contributes to tumor development through collaboration with CK2α [21]. The overexpression of the TET1 protein was also found in triple negative breast cancer and was associated with an activation of PI3K/mTOR pathway and decreased overall survival.
The human mammary gland/breast cell line (BT-20), purchased from ATCC (BT-20 (ATCC® HTB-19™), Manassas, VA, USA), was used for the cytotoxicity assay (MTT), and BT-20 cells were cultivated under standard conditions in Eagle’s minimum essential medium (ATCC, Manassas, VA, USA) supplemented with 10% FBS and streptomycin (100 μg/mL) at 37 °C at a 5% CO2 atmosphere.
(§2) For the cytotoxicity assay, we used the following cell lines: human glioblastoma cell line U118-MG, human mammary gland/breast cell line BT-20, human ovary adenocarcinoma cell line Caov-3, and non-small-cell lung carcinoma H-1299. As previously mentioned, these cell lines contain a high level of the TET1 protein, which corresponds to a lower overall survival. In addition to these cell cultures, we used the human dermal fibroblast cell line HF-P4 as a healthy control. Determination of cytotoxicity was performed using the MTT [3-(4,5-dimethylthiazol-2-yl)-2,5-diphenyltetrazolium bromide] colorimetric assay. Viable cells from each cell line were cultured in 96-well plates (VWR, Stříbrná Skalice, Czech Republic) at a density of 1.0 × 10^5 cells per well and allowed to grow for 24 h in 200 μL of recommended medium. After a 1-day incubation, the medium was replaced with solutions of compounds 1–6 at concentration ranges of 0.1–20 μM. Each concentration was measured four times within one test, and the entire test was repeated three times. Tested compounds 1–6 were dissolved in DMSO and then diluted with corresponding medium to a final volume of 200 μL (maximum 1% DMSO). After 48 h exposure, cells were treated with 175 μL of MTT solution (P-LAB, Prague, Czech Republic) for 2 h. In the next step, MTT solution was removed, and 125 μL of DMSO (Penta, Prague, Czech Republic) was added to solubilize dark crystals of formazan formed in intact cells, and absorbance was measured at 570 nm by the enzyme-linked immunoabsorbent assay reader Infinite® 200 PRO (Tecan, Männedorf, Switzerland). The final DMSO concentration was smaller than 1% (v/v). The absorbance of untreated cells was considered 100%, and IC50 values were calculated by the GraphPad Prism 8 software. As a parameter for cytotoxicity, we used a concentration that inhibits 50% of cell growth (IC50).

[2] = test system: Caov-3 cells; assay: MTT cytotoxicity assay, Caov-3; assay type: cell-based, human; conditions: for Cell viability % / pIC50: 48 h; for pIC50: Caov-3, MTT
Protocol: as §1
The human ovary adenocarcinoma cell line (Caov-3), purchased from ATCC (Caov-3 (ATCC® HTB-75™), Manassas, VA, USA), was used for the cytotoxicity assay (MTT). Caov-3 cells were cultivated under standard conditions in Dulbecco’s modified Eagle’s medium (ATCC, Manassas, VA, USA) supplemented with 10% FBS and streptomycin (100 μg/mL) at 37 °C at a 5% CO2 atmosphere.
as §2

[3] = BT-20, 750 nM, repeats, 0.75 µM
[4] = Homo sapiens, BT-20, 48 h, BT-20, 100 nM, repeats, read-out: Cell viability %
[5] = Homo sapiens, BT-20, 48 h, BT-20, 500 nM, repeats, read-out: Cell viability %
[6] = Homo sapiens, BT-20, 48 h, BT-20, 1 uM, repeats, read-out: Cell viability %
[7] = Homo sapiens, BT-20, 48 h, BT-20, 7.5 uM, repeats, read-out: Cell viability %
[8] = Homo sapiens, BT-20, 48 h, BT-20, 10 uM, repeats, read-out: Cell viability %
[9] = Homo sapiens, BT-20, 48 h, BT-20, 15 uM, repeats, read-out: Cell viability %
[10] = Homo sapiens, BT-20, 48 h, BT-20, 20 uM, repeats, read-out: Cell viability %
[11] = Caov-3, 100 nM, repeats, 0.1 µM
[12] = Caov-3, 500 nM, repeats, 0.5 µM
[13] = Caov-3, 750 nM, repeats, 0.75 µM
[14] = Caov-3, 2.5 uM, repeats, 2.5 µM
[15] = Caov-3, 7.5 uM, repeats, 7.5 µM
[16] = Homo sapiens, Caov-3, 48 h, Caov-3, 15 uM, repeats, read-out: Cell viability %
[17] = Homo sapiens, Caov-3, 48 h, Caov-3, 20 uM, repeats, read-out: Cell viability %

| SMILES | Cell viability % ([1]; BT-20, 100 nM, repeats, 0.1 µM) | Cell viability % ([1]; BT-20, 500 nM, repeats, 0.5 µM) | Cell viability % [1, 3] | Cell viability % ([1]; BT-20, 1 uM, repeats, 1 µM) | Cell viability % ([1]; BT-20, 2.5 uM, repeats, 2.5 µM) | Cell viability % ([1]; BT-20, 5 uM, repeats, 5 µM) | Cell viability % ([1]; BT-20, 7.5 uM, repeats, 7.5 µM) | Cell viability % ([1]; BT-20, 10 uM, repeats, 10 µM) | Cell viability % ([1]; BT-20, 15 uM, repeats, 15 µM) | Cell viability % ([1]; BT-20, 20 uM, repeats, 20 µM) | viability at 0.1 µM [1, 4] | viability at 0.5 µM [1, 5] | viability at 1 µM [1, 6] | viability at 7.5 µM [1, 7] | viability at 10 µM [1, 8] | viability at 15 µM [1, 9] | viability at 20 µM [1, 10] | pIC50 ([1]; Homo sapiens) | Cell viability % [2, 11] | Cell viability % [2, 12] | also measured |
| --- | --- | --- | --- | --- | --- | --- | --- | --- | --- | --- | --- | --- | --- | --- | --- | --- | --- | --- | --- | --- | --- |
| Cc1ccc(-n2c(-c3ccc(C(=O)N/N=C/c4ccccc4O)cc3)cc3c2cc(-c2ccc(C(=O)N/N=C/c4ccccc4O)cc2)n3-c2ccc(C)cc2)cc1 [Compound 6] | 95.0647% and 99.24% | 79.35% and 86.49% | 84.44% and 98.05% | 79.3% and 90.76% | 84.17% and 92.79% | 70.3% and 79.42% | 49.86% and 58.52% | 29.6118% and 40.92% | 26.72% and 42.11% | 24.04% and 23.03% | 104% | 79.9% | 91.2% | 50.5% | 36.2% | 37.8% | 18.8% | 5.01 | 90.2569% and 126.2705% and 118.7488% | 89.11% and 125.1899% and 99.08% | viability at 0.75 µM ([1]; Homo sapiens, BT-20, 48 h, BT-20, 750 nM, repeats, read-out: Cell viability %): 85.1%; viability at 2.5 µM ([1]; Homo sapiens, BT-20, 48 h, BT-20, 2.5 uM, repeats, read-out: Cell viability %): 89.2%; viability at 5 µM ([1]; Homo sapiens, BT-20, 48 h, BT-20, 5 uM, repeats, read-out: Cell viability %): 85.8%; Cell viability % [2, 13]: 65.96% and 78.5%; Cell viability % ([2]; Caov-3, 1 uM, repeats, 1 µM): 64.72% and 111.7508% and 115.9087%; Cell viability % [2, 14]: 67.86% and 93.922% and 75.11%; Cell viability % ([2]; Caov-3, 5 uM, repeats, 5 µM): 62.99% and 65.69% and 100.7653%; Cell viability % [2, 15]: 58% and 65.63% and 91.09%; Cell viability % ([2]; Caov-3, 10 uM, repeats, 10 µM): 52.62% and 73.89% and 61.74%; Cell viability % ([2]; Caov-3, 15 uM, repeats, 15 µM): 42.46% and 49.26%; Cell viability % ([2]; Caov-3, 20 uM, repeats, 20 µM): 17.34% and 16.88%; viability at 0.75 µM ([2]; Homo sapiens, Caov-3, 48 h, Caov-3, 750 nM, repeats, read-out: Cell viability %): 67%; viability at 15 µM [2, 16]: 36.3%; viability at 20 µM [2, 17]: 17.4%; pIC50 ([2]; Homo sapiens): 4.81 |
| COc1cccc(/C=N/NC(=O)c2ccc(-c3cc4c(cc(-c5ccc(C(=O)N/N=C/c6cccc(OC)c6O)cc5)n4-c4ccc(C)cc4)n3-c3ccc(C)cc3)cc2)c1O [Compound 5] | 94.73% and 89.5899% | 90.47% and 107.0261% | 86.64% and 81% and 102.8391% | 92.1% and 100.302% | 80.3% and 100.57% and 104.0262% | 60.99% and 87.49% and 89.1% | 52.633% and 55.7373% | 52.47% and 37.54% | 28.45% and 34.27% | 18.3694% and 26.24% | 86% | 97.4% | 99% | 45.7% | 41.3% | 28.5% | 20.9% | 4.95 | 124.7159% and 131.0561% and 82.4% | 90.56% and 116.6807% and 137.4211% | Cell viability % [2, 13]: 97.72% and 117.0859% and 120.9681%; Cell viability % ([2]; Caov-3, 1 uM, repeats, 1 µM): 115.5595% and 95.48% and 128.3145%; Cell viability % [2, 14]: 106.339% and 69.34% and 79.185%; Cell viability % ([2]; Caov-3, 5 uM, repeats, 5 µM): 81.63% and 70.92%; Cell viability % [2, 15]: 49.35% and 63.65%; Cell viability % ([2]; Caov-3, 10 uM, repeats, 10 µM): 41.31% and 47.33%; Cell viability % ([2]; Caov-3, 15 uM, repeats, 15 µM): 34.22% and 36.44%; Cell viability % ([2]; Caov-3, 20 uM, repeats, 20 µM): 16.1941% and 14.83%; viability at 5 µM ([2]; Homo sapiens, Caov-3, 48 h, Caov-3, 5 uM, repeats, read-out: Cell viability %): 83.6%; viability at 7.5 µM ([2]; Homo sapiens, Caov-3, 48 h, Caov-3, 7.5 uM, repeats, read-out: Cell viability %): 62.5%; viability at 10 µM ([2]; Homo sapiens, Caov-3, 48 h, Caov-3, 10 uM, repeats, read-out: Cell viability %): 29.5%; viability at 15 µM [2, 16]: 31.5%; viability at 20 µM [2, 17]: 17.9%; pIC50 ([2]; Homo sapiens): 5.02 |
